Data from patent publication US20020132853A1, “Capsaicin receptor ligands” (priority 2000, published 2002).

What follows are compounds tested against T1, human capsaicin receptor (Homo sapiens, UniProt Q8NER1) (assay: Antagonist assay for Capsaicin receptor mediated calcium mobilization). Details: Table III, read-out: EC50 (the source's name).
T1 construct: expression consrtuct encoding the full length human capsaicin receptor; expressed in transfected cells
Format: cell-based
Description: Calcium Mobilization Assay
Cells transfected with expression plasmids (as described in Example 10) and thereby expressing the human capsaicin receptor are seeded and grown to 70-90% confluency in FALCON black-walled, clear-bottomed 96-well plates (#3904, BECTON-DICKINSON, Franklin Lakes, N.J.) . The culture media are emptied from the 96 well plates and FLUO-3 AM calcium sensitive dye (Molecular Probes, Eugene, OR) is added to each well (dye solution: 1 mg FLUO-3 AM, 440 uL DMSO and 440 ul 20% pluronic acid in DMSO, diluted 1:4, 50 ul diluted solution per well). Plates are covered with aluminum foil and incubated at 37° C for 1-2 hours in an environment containing 5% CO2. After the incubation the dye is emptied from the plates, and the cells are washed once with Krebs-Ringer HEPES (KRH) buffer (25 mM HEPES, 5 mM KCl, 0.96 mM NaH2PO4, 1 MM MgSO4, 2 mM CaCl2, 5 mM glucose, 1 mM probenecid, pH 7.4), and resuspended in KRH buffer.
Agonist (e.g., olvanil, capsaicin, or RTX)-induced calcium mobilization is monitored using either FLUOROSKAN ASCENT (Labsystems, Franklin, Mass.) or FLIPR (fluorometric imaging plate reader system, Molecular Devices, Sunnyvale, Calif.) instruments. Similarly, varying concentrations of the antagonists ruthenium red or capsazepine are added to cells concurrently with agonist (e.g., 25-50 nM capsaicin). For agonist-induced calcium responses, data obtained between 30 and 60 seconds after agonist application are used to generate the EC50 values. […] software (Synergy Software, Reading, Pa.) was utilized to fit the data to the equation: […]
to determine the EC50 for the response. In this equation, y is the maximum fluorescence signal, x is the concentration of the agonist or antagonist, a is the Emax, b corresponds to the EC50 or IC50 value, and finally, c is the Hill coefficient.
Assay for Determination of Capsaicin Receptor Antagonist Effects
In order to measure the ability of a test compound to antagonize (inhibit) the response of cells expressing capsaicin receptors to capsaicin or other vanilloid agonist, the EC50 of capsaicin is first determined.
An additional 20 ul of KRH buffer and 1 ul DMSO is added to each well of cells, prepared as described above. 100 ul capsaicin in KRH buffer is automatically transferred by the FLIPR instrument to each well.
Test compounds are dissolved in DMSO, diluted in 20 ul KRH buffer so that the final concentration of test compounds in the assay well is between 1 uM and 5 uM, and added to cells prepared as described above. The 96 well plates containing prepared cells and test compounds are incubated in the dark, at room temperature for 0.5-6 hours. It is important that the incubation not continue beyond 6 hours. Just prior to determining the fluorescence response, 100 ul capsaicin in KRH buffer at twice the EC50 concentration determined from the concentration response curve is automatically added by the FLIPR instrument to each well of the 96 well plate for a final sample volume of 200 ul and a final capsaicin concentration equal to the EC50. The final concentration of test compounds in the assay wells is between 1 uM and 5 uM. […] Antagonists of the capsaicin receptor decrease this response by about 20%, preferably by about 50%, and most preferably by at least 80% as compared to matched control. The concentration of antagonist required to provide a 50% decrease is the EC50 for the antagonist (also referred to as the IC50).

T1 sequence (Q8NER1 whole entry): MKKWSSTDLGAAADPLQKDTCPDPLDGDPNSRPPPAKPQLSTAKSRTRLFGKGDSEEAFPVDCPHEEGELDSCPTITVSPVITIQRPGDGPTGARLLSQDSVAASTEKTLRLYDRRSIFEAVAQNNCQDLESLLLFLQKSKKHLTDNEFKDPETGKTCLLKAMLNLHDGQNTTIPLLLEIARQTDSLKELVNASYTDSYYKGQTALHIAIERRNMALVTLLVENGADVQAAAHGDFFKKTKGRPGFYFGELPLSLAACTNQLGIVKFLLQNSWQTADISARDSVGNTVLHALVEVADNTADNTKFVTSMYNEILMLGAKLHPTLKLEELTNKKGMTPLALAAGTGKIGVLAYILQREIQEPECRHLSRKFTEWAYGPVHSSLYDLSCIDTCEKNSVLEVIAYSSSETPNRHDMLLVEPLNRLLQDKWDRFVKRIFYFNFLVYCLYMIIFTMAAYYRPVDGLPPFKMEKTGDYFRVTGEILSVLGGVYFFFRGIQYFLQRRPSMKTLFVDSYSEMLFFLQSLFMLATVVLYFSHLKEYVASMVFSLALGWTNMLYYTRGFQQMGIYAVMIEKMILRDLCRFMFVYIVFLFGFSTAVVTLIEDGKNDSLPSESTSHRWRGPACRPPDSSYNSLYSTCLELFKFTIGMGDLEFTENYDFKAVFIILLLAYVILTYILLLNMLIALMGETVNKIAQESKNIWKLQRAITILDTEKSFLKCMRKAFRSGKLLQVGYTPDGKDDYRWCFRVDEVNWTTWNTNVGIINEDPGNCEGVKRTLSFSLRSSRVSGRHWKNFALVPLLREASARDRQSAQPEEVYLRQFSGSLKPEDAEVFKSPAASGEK

IC50, < 1 µM:
COCC(C)(C)c1ccc(NC(=O)N2CCN(c3ncccc3Cl)C[C@H]2C)cc1 [Compound 54, (2R)-4-(3-chloropyridin-2-yl)-N-[4-(2-methoxy-1,1-dimethylethyl)phenyl]-2-methylpiperazine-1-carboxamide]
C[C@H]1CN(c2ncccc2Cl)CCN1C(=O)Nc1ccc(C(F)(F)F)cc1 [Compound 23, (2S)-4-(3-chloropyridin-2-yl)-N-(4-trifluoromethylphenyl)-2-methylpiperazine-1-carboxamide]
C[C@@H]1CN(c2ncccc2Cl)CCN1C(=O)Nc1ccc(N2CCCCC2)cc1 [Compound 26, (2R)-4-(3-chloropyridin-2-yl)-2-methyl-N-(4-piperidin-1-ylphenyl)piperazine-1-carboxamide]
CC(C)c1ccc(NC(=O)N2CCN(c3ncccc3F)C[C@H]2C)cc1 [Compound 77, (2R)-4-(3-fluoropyridin-2-yl)-N-(4-isopropylphenyl)-2-methylpiperazine-1-carboxamide]
CCC1CN(c2ncccc2C(F)(F)F)CCN1C(=O)Nc1ccc(C(C)(C)C)cc1 (stereo not drawn) [Compound 61, N-(4-tert-butylphenyl)-2-ethyl-4-[3-(trifluoromethyl)pyridin-2-yl]piperazine-1-carboxamide]
C[C@@H]1CN(c2ncccc2Cl)CCN1C(=O)Nc1ccc(C2(O)CCOCC2)cc1 [Compound 50, (2R)-4-(3-chloropyridin-2-yl)-N-[4-(4-hydroxytetrahydro-2H-pyran-4-yl)phenyl]-2-methylpiperazine-1-carboxamide]
Cc1nc(-c2ccc(NC(=O)N3CCN(c4ncccc4Cl)C[C@H]3C)cc2)cs1 [Compound 52, (2R)-4-(3-chloropyridin-2-yl)-2-methyl-N-[4-(2-methyl-1,3-thiazol-4-yl)phenyl]piperazine-1-carboxamide]
CCC1CN(c2ncccc2Cl)CCN1C(=O)Nc1ccc(C(C)C)cc1 (stereo not drawn) [Compound 60, 4-(3-chloropyridin-2-yl)-2-ethyl-N-[4-isopropylphenyl)piperazine-1-carboxamide]
CC(C)C1CN(c2ncccc2Cl)CCN1C(=O)Nc1ccc(C(C)(C)C)cc1 (stereo not drawn) [Compound 69, N-(4-tert-butylphenyl)-4-(3-chloropyridin-2-yl)-2-isopropylpiperazine-1-carboxamide]
CC(C)c1ccc(NC(=O)N2CCN(c3nccc4ccccc34)C[C@H]2C)cc1 [Compound 40, (2R)-N-(4-isopropylphenyl)-4-isoquinolin-1-yl-2-methylpiperazine-1-carboxamide]
C[C@@H]1CN(c2ncccc2C#N)CCN1C(=O)Nc1ccc(C(F)(F)F)cc1 [Compound 83, (2R)-4-(3-cyanopyridin-2-yl)-2-methyl-N-[4-(trifluoromethyl)phenyl]piperazine-1-carboxamide]
COCC(C)(C)c1ccc(NC(=O)N2CCN(c3ncccc3C(F)(F)F)C[C@H]2C)cc1 [Compound 55, (2R)-N-[4-(2-methoxy-1,1-dimethylethyl)phenyl]-2-methyl-4-[3-(trifluoromethyl)pyridin-2-yl]piperazine-1-carboxamide]
CCC1CN(c2ncccc2C(F)(F)F)CCN1C(=O)Nc1ccc(C(C)C)cc1 (stereo not drawn) [Compound 63, 2-ethyl-N-(4-isopropylphenyl)-4-[3-(trifluoromethyl)pyridin-2-yl]piperazine-1-carboxamide]
CC(C)c1ccc(NC(=O)N2CCN(c3ncccc3C(F)(F)F)CC2C(C)C)cc1 (stereo not drawn) [Compound 74, 2-isopropyl-N-(4-isopropylphenyl)-4-[3-(trifluoromethyl)pyridin-2-yl]piperazine-1-carboxamide]
C[C@@H]1CN(c2ncccc2C#N)CCN1C(=O)Nc1ccc(C(C)(C)C)cc1 [Compound 82, (2R)-N-(4-tert-butylphenyl)-4-(3-cyanopyridin-2-yl)-2-methylpiperazine-1-carboxamide]

Same assay, conditions: Table IV, read-out: EC50 (the source's name)

IC50, < 1 µM:
C[C@@H]1CN(c2nccnc2Cl)CCN1C(=O)Nc1ccc(C(C)(C)C)cc1 [Compound 95, (2R)-N-(4-tert-butylpghenyl)-4-(3-chloropyrazin-2-yl)-2-methylpiperazine-1-carboxamide]
C[C@@H]1CN(c2ncccc2Cl)CCN1C(=O)Nc1ccc(C(F)(F)F)nc1 [Compound 98, (2R)-4-(3-chloropyridin-2-yl)-2-methyl-N-[6-(trifluoromethyl)pyridin-3-yl]piperazine-1-carboxamide]
CC(C)c1ccc(NC(=O)N2CCN(c3nccnc3Cl)C[C@H]2C)cc1 [Compound 96, (2R)-4-(3-chloropyrazin-2-yl)-N-(4-isopropylphenyl)-2-methylpiperazine-1-carboxamide]

Same assay, conditions: Table V, read-out: EC50 (the source's name)

IC50, < 1 µM:
C[C@@H]1CN(c2ncccc2C(F)(F)F)CCN1C(=O)Nc1ccc2c(c1)Cc1ccccc1-2 [Compound 143, (2R)-N-(9H-fluoren-2-yl)-2-methyl-4-[3-(trifluoromethyl)pyridin-2-yl]piperazine-1-carboxamide]
C[C@@H]1CN(c2ncccc2Cl)CCN1C(=O)Nc1ccc(C(=O)c2ccccc2)cc1 [Compound 140, (2R)-N-(4-benzoylphenyl)-4-(3-chloropyridin-2-yl)-2-methylpiperazine-1-carboxamide]
CCCCc1ccc(NC(=O)N2CCN(c3ncccc3Cl)C[C@H]2C)cc1 [Compound 152, (2R)-N-(4-butylphenyl)-4-(3-chloropyridin-2-yl)-2-methylpiperazine-1-carboxamide]
COc1cccc(NC(=O)N2CCN(c3ncccc3C(F)(F)F)CC2)c1 [Compound 113, N-(3-methoxyphenyl)-4-[3-(trifluoromethyl)pyridin-2-yl]piperazine-1-carboxamide]
C[C@@H]1CN(c2ncccc2C(F)(F)F)CCN1C(=O)Nc1ccc(Cl)c(C(F)(F)F)c1 [Compound 160, (2R)-N-[4-chloro-3-(trifluoromethyl)phenyl]-2-methyl-4-[3-(trifluoromethyl)pyridin-2-yl]piperazine-1-carboxamide]
C[C@@H]1CN(c2ncc(N)cc2Cl)CCN1C(=O)Nc1ccc(C(F)(F)F)cc1 [Compound 132, (2R)-4-(5-amino-3-chloropyridin-2-yl)-2-methyl-N-[4-(trifluoromethyl)phenyl]piperazine-1-carboxamide]
C[C@@H]1CN(c2ncccc2Cl)CCN1C(=O)Nc1ccc(I)cc1 [Compound 141, (2R)-4-(3-chloropyridin-2-yl)-N-(4-iodophenyl)-2-methylipierazine-1-carboxamide]
O=C(Nc1cccc(Cl)c1)N1CCN(c2cc(C(F)(F)F)ccn2)CC1 [Compound 109, N-(3-chlorophenyl)-4-[4-(trifluoromethyl)pyridin-2-yl]piperazine-1-carboxamide]
C[C@@H]1CN(c2ncccc2Cl)CCN1C(=O)Nc1ccc(C(C#N)c2ccccc2)cc1 (stereo partly drawn) [Compound 120, (2R)-4-(3-chloropyridin-2-yl)-N-[4-[cyano(phenyl)methyl]phenyl]-2-methylpiperazine-1-carboxamide]

Same assay, conditions: Table VI, read-out: EC50 (the source's name)

IC50, < 1 µM:
C[C@@H]1CN(c2nccnc2Cl)CCN1C(=O)Nc1ccc(C2CCCC2)cc1 [Compound 165, (2R)-4-(3-chloropyrazin-2-yl)-2-methyl-N-{4-cyclopentyl-phenyl}piperazine-1-carboxamide]
C[C@@H]1CN(c2nccnc2Cl)CCN1C(=O)Nc1ccc(C2CCCCC2)cc1 [Compound 166, (2R)-4-(3-chloropyrazin-2-yl)-2-methyl-N-{4-cyclohexyl-phenyl}piperazine-1-carboxamide]
C[C@@H]1CN(c2ncccc2Cl)CCN1C(=O)Oc1ccc(C(C)(C)C)cc1 [Compound 173]
